The structures appear in SMILES notation. Read-outs that look alike come from different tables or passages of the source.

The subject of assay [1] is Trypanosoma brucei rhodensiense (STIB 900 strain). As to the kind of experiment: African trypanosoma protozoa proliferation inhibition screening test. Format: cell-based. Conditions: for EC50 Trypanosoma brucei rhod. / EC50: STIB 900 bloodstream form, 72 hours, Alamar blue; for Selective toxicity: EC50 rat L6 cells / EC50 African trypanosoma protozoa; for EC50: Trypanosoma brucei, STIB900, read-out: EC50 Trypanosoma brucei rhod. The protocol:
In this experiment, bloodstream form trypomastigote of Trypanosoma brucei rhodensiense (STIB 900 strain) was used. The medium used in the experiment was prepared as follows: to filter-sterilized MEM medium, 25 mM N-2-hydroxyethylpiperazine-2-ethane sulfonate (HEPES), 1 g/L glucose, 1% MEM nonessential amino acid, 0.2 mM 2-mercaptoethanol, 2 mM pyruvic calcium salt, 0.1 mM hypoxanthine, and 15% heat-treated horse serum were added. The protozoa was cultured under atmosphere of CO2 concentration 5% and temperature 37° C.
Either the compound of the invention or a positive control (melarsoprol) was dissolved into dimethylsulfoxide (DMSO) to prepare test solution having predefined concentration. To each well in a 96-well culture plate, medium containing 8×10^3 protozoa, and either test solution containing the test compound at predefined concentration or DMSO without compound was added. Then medium was added to achieve 100 μL. The test solution was duplicated.
The culture plate was cultured in an incubator for 72 hours, and the proliferation inhibition activity was examined. The activity was determined as follows. To each well, 10 μL Alamar blue water solution was added, then the plate was again cultured for 2 hours. Then the culture plate was mounted on a fluorescence microplate reader (Spectramax Gemeni XS; Molecular Devices Corporation, U.S.), and irradiated with 536 nm excitation wavelength to determine fluorescence at 588 nm. The trypanosoma infection rate of the sample containing the test composition and that of the control sample was calculated.
(§1) Using the protozoa infection rate thus obtained, the proliferation inhibition rate was calculated according to the following equation to determine 50% proliferation inhibition concentration (EC50).
(§2) Proliferation inhibition rate(%)={1−(b−a)/(c−a)}×100
a: initial infection rate b: infection rate of the test compound solution c: infection rate of the control
(In general: Resazurin is reduced to fluorescent resorufin, in cell work by metabolically active cells.)

In assay [2] the test system is Leishmania donovani (MHOM/ET/67/L82 strain). As to the kind of experiment: Leishmania protozoa proliferation inhibition screening test. Format: cell-based. Conditions: for EC50: Leishmania donovani, read-out: EC50 Leishmania donovani; for Selective toxicity: EC50 rat L6 cells / EC50 leishmania protozoa. The protocol: In this experiment, Leishmania donovani (MHOM/ET/67/L82 strain) was used. The protozoa were successively cultured in Syrian Golden hamsters to obtain amastigote. The medium used in the experiment was SM medium having heat-treated fetal bovine serum 10% added, and pH prepared to 5.4. The culture was conducted under CO2 concentration 5% and temperature 37° C.
Either the compound of the invention or a positive control (miltefosine) was dissolved into DMSO to prepare test solution having predefined concentration. To each well of a 96-well culture plate, medium containing predetermined number of protozoa was added and the culture was pre-treated. The concentration of amastigote was determined by CASY cell analyze system (Scharfe GMBH Co., Germany). Subsequently, either test solution containing compound of the invention in predefined concentration or DMSO without compound was added. The test solution was duplicated.
The plate was cultured in an incubator for 72 hours, and the proliferation inhibition activity was examined. The activity was determined as follows. To each well, 10 μL Alamar blue aqueous solution was added, then cultured again for 2 hours. Then the culture plate was mounted on a fluorescence microplate reader (Spectramax Gemeni XS; Molecular Devices Corporation, U.S), and irradiated 536 nm excitation wavelength to determine […] at 588 nm. The leishmania infection rate of the sample containing the test compound and that of the control sample was calculated.
as §1, §2
a: initial infection rate b: infection rate of test compound solution c: infection rate of the control

Assay [3] deals with Plasmodium berghei NK 65 strain. Nature of the assay: animal or person. Format: in vivo. The settings on record: for Recovery Rate (suppression) / Survival days (mean survival days, treatment group minus control group): 4 days; for Recovery Rate (suppression): P. berghei infected ICR mice.
[4] abbreviates: amastigote, 72 hours, Alamar blue.
The mark [5] stands for this setting: dose 25 mg/kg/d intraperitoneally.
[6] abbreviates: Plasmodium berghei, ip, 96 h, read-out: Recovery Rate (suppression).

`CCN1C(=O)/C(=c2/s/c(=C3/SCCN3C)c(=O)n2CC)S/C1=N\c1sc2cc(OC)ccc2[n+]1C` [Compound B-29]: in assay [1], the “EC50 Trypanosoma brucei rhod.” value stood at 0.023 µg/mL. Further, the “EC50 Leishmania donovani” value in assay [2] (setting [4]) was >0.04 µg/mL. Besides, in assay [3] (setting [5]), the “Recovery Rate (suppression)” value is on record as 95.0%.

In general, EC50 refers to the midpoint of the concentration-response curve. Regarding `CCN1C(=O)/C(=c2/s/c(=C3/C=CC=CN3C)c(=O)n2CC)S/C1=N\c1sc2cc(Cl)ccc2[n+]1C` [Compound B-2], in assay [1], the Selective toxicity is on record as 258 and the EC50 was determined as 0.104 µg/mL. Besides, in assay [2] (setting [4]), the EC50 came to 0.249 µg/mL. Besides, in assay [3] (setting [6]), the inhibition in vivo at 10 mg/kg/day is 79.8%, the inhibition in vivo at 20 mg/kg/day was determined as 97.4%, the inhibition in vivo at 25 mg/kg/day came out at 97.1% and the inhibition in vivo at 40 mg/kg/day is 99.1%. In addition, the “Survival days (mean survival days, treatment group minus control group)” value in assay [3] (setting [5]) amounted to 19.3 days.

For the compound `CCn1c(=O)/c(=C2\SCCN2C)s/c1=C1\S/C(=N\c2sc3cc(Cl)ccc3[n+]2C)N(C(C)C)C1=O` [Compound B-37], in assay [1], the Selective toxicity amounted to 19 and the EC50 worked out at 0.052 µg/mL. Also, the inhibition in vivo at 25 mg/kg/day in assay [3] (setting [6]) turned out to be 94.5%.

Consider `CCN1C(=O)/C(=c2/s/c(=C3/SCCN3C)c(=O)n2CC)S/C1=N\c1sc2cc(F)ccc2[n+]1C` [Compound B-33], for which, in assay [1], the “EC50 Trypanosoma brucei rhod.” value stood at 0.1485 µg/mL. Moreover, in assay [2] (setting [4]), the “EC50 Leishmania donovani” value was determined as 0.2015 µg/mL. For the same compound, in assay [3] (setting [5]), the “Survival days (mean survival days, treatment group minus control group)” value turned out to be 8.7 days and the “Recovery Rate (suppression)” value was 70.5%.

Regarding `CN1/C(=c2\s/c(=C\c3cccc[n+]3CCC(=O)O)n(CC3CO3)c2=O)Sc2ccccc21` (stereo not drawn) [Compound S-3, reference compound], the Selective toxicity is recorded as >15 in assay [1] and >170 in assay [2]. Also, the results for the EC50 in assay [1] and in assay [2] (72 h) were 6.1 µg/mL and 0.53 µg/mL, respectively. Also, the inhibition in vivo at 5 mg/kg/day in assay [3] (setting [6]) is 29.8%. The “Survival days (mean survival days, treatment group minus control group)” value in assay [3] (dose 5.0 mg/kg/d intraperitoneally) was determined as 0 days.

Turning to `CCN1C(=O)/C(=C2\C=Cc3ccccc3N2C)S/C1=N\c1sc2cc(Cl)ccc2[n+]1C` [Compound A-2], the Selective toxicity in assay [1] is 72; in assay [2], 2800. The EC50 stood at 0.076 µg/mL in assay [1] and 0.002 µg/mL in assay [2] (setting [4]). Moreover, the inhibition in vivo at 10 mg/kg/day in assay [3] (setting [6]) amounted to 54.6%.

Turning to `CCN1C(=O)/C(=c2/s/c(=C3/C=CC=CN3C)c(=O)n2CC)S/C1=N\c1sc2ccccc2[n+]1C` [Compound B-30], the “EC50 Trypanosoma brucei rhod.” value in assay [1] came to 0.0625 µg/mL. Besides, the “EC50 Leishmania donovani” value in assay [2] (setting [4]) stood at 0.11 µg/mL. Besides, the “Recovery Rate (suppression)” value is 70.8% in assay [3] (dose 10 mg/kg/d intraperitoneally), 92.4% in assay [3] (dose 20 mg/kg/d intraperitoneally), 96.4% in assay [3] (setting [5]) and 97.8% in assay [3] (dose 40 mg/kg/d intraperitoneally). In assay [3] (setting [5]), the “Survival days (mean survival days, treatment group minus control group)” value was found to be 16.0 days.

Take `CCN1C(=O)/C(=C2\Sc3ccccc3N2C)S/C1=N\c1sc2cc(Cl)ccc2[n+]1C` [Compound A-1]: the Selective toxicity in assay [1] turned out to be 94; in assay [2] it was 299. The EC50 is 0.403 µg/mL in assay [1] and 0.127 µg/mL in assay [2] (setting [4]). In addition, the inhibition in vivo at 10 mg/kg/day in assay [3] (setting [6]) worked out at 54.1%. In addition, the inhibition in vivo at 25 mg/kg/day in assay [3] (setting [6]) was 62.7%. Moreover, the “Survival days (mean survival days, treatment group minus control group)” value in assay [3] (setting [5]) was determined as 2.0 days.

Regarding `CCN1C(=O)/C(=c2/s/c(=C3/SCCN3C)c(=O)n2CC)S/C1=N\c1sc2cc(Cl)ccc2[n+]1C` [Compound B-12], the Selective toxicity in assay [1] was determined as 50; in assay [2], 41. In addition, the EC50 in assay [1] came to 0.138 µg/mL; in assay [2] (setting [4]), 0.167 µg/mL. The inhibition in vivo at 25 mg/kg/day in assay [3] (setting [6]) stood at 88.4%.

For `CCN1C(=O)/C(=c2/s/c(=C3/C=CC=CN3C)c(=O)n2CC)S/C1=N\c1sc2cc(OC)ccc2[n+]1C` [Compound B-28], the “EC50 Trypanosoma brucei rhod.” value in assay [1] amounted to 0.042 µg/mL. Further, the “EC50 Leishmania donovani” value in assay [2] (setting [4]) turned out to be 0.037 µg/mL. The “Recovery Rate (suppression)” value in assay [3] (setting [5]) stood at 98.3%.

The values above are taken from US20090076067A1, “PHARMACEUTICAL COMPOSITION COMPRISING AZARHODACYANINE COMPOUND AS ACTIVE INGREDIENT” (priority 2005, published 2009).
